Where “and” joins values, the source holds several entries; their conditions need not be identical. Equal values may be shown once. Entries after “also recorded” stand apart in the source; their conditions may differ.
Tests used:
human blood-platelets [1] = assay: aggregation of human blood-platelets caused by ADP; format: cell-based; parameters: key to Aggregation with ADP, concentration which induces 50% inhibition: --: No inhibition
Description: (§1) More precisely, its activity upon the blood-platelet functions has been studied in vitro in relation to the inhibition of the aggregation of blood-platelets caused by ADP ("aggregation with ADP"), in relation to the inhibition of the attachment of fibrinogen to the blood-platelets caused by ADP ("attachment of fibrinogen with ADP"), in relation to the inhibition of the aggregation of blood-platelets caused by thrombin ("aggregation with thrombin") and in relation to the inhibition of the reaction caused by thrombin ("secretion reaction with thrombin") that is to say the release of one of the constituents of the dense granule (serotonin), evidence of blood-platelet activation.
(§2) These three products (κ-casein, κ-paracasein and CGP) have been tested upon the aggregation of human blood-platelets by ADP and by thrombin, upon the fixing of fibrinogen in the presence of ADP, and on the secretion reaction.

human blood-platelets [2] = assay: attachment of fibrinogen to the blood-platelets caused by ADP; format: cell-based; conditions: CGP at 250 μM
Description: as §1, §2

human blood-platelets [3] = assay: aggregation of human blood-platelets caused by thrombin; format: cell-based
Description: as §1, §2

human blood-platelets [4] = assay: secretion reaction with thrombin (release of serotonin from the dense granule); format: cell-based
Description: as §1, §2

blood-platelets [5] = conditions: literature, fragments of cow's CGP; cited from earlier work
blood-platelets [6] = conditions: literature, fragments of cow's CGP; same concentrations as the undecapeptide; cited from earlier work

IC50 (human blood-platelets [3]; Table II, read-out: Aggregation with thrombin, concentration which induces 50% inhibition)	IC50 (human blood-platelets [3]; read-out: CI50, aggregation with thrombin)	IC50 (human blood-platelets [4]; Table II, read-out: Secretion reaction with thrombin, concentration which induces 50% inhibition)	IC50 (human blood-platelets [4]; read-out: CI50, secretion reaction with thrombin)	Substance	CI50, aggregation with ADP (human blood-platelets [1])	Aggregation with ADP, concentration which induces 50% inhibition (human blood-platelets [1]; Table II)	inhibition of fibrinogen attachment with ADP (human blood-platelets [2])	inhibition of blood-platelet aggregation in vitro (blood-platelets [5])	inhibition of the attachment of fibrinogen to the blood-platelets in vitro (blood-platelets [6])
10 µM	10 µM and ~10 µM	10 µM	10 µM and ~10 µM	κ-casein: cow's milk protein that under chymosin yields κ-paracasein and CGP; comparator	inactive; also recorded: inhibits neither	--	inhibits neither		
				tetrapeptide containing the residues 113→116: fragment 113→116 of cow's κ-caseinoglycopeptide, by trypsin digestion of CGP or by synthesis (NQDK; UniProt P02668 134-137, looked up, fragment)				inhibits only very slightly	none of these peptides inhibit
				heptapeptide containing the residues 106→112: fragment 106→112 of cow's κ-caseinoglycopeptide, by trypsin digestion of CGP or by synthesis (MAIPPKK; UniProt P02668 127-133, looked up, fragment)				non-inhibiting	none of these peptides inhibit

From patent publication US5063203A, “Method of preventing or treating thrombosis using kappa-caseinoglycopeptide as active ingredient” (Centre National de la Recherche Scientifique (CNRS), priority 1989, dated 1991)
